Laboratory results: the supplement of paper PMC10307832

Experiments:
Assay in all cases: relative viability (nuclei count vs DMSO), 5 days (fraction); higher = more cells survive
VX-702 + Lapatinib = compound: NC(=O)c1ccc(N(C(N)=O)c2c(F)cccc2F)nc1-c1ccc(F)cc1F [VX-702] + CS(=O)(=O)CCNCc1ccc(-c2ccc3ncnc(Nc4ccc(OCc5cccc(F)c5)c(Cl)c4)c3c2)o1 [Lapatinib] (partner 2 µM)
Method in brief: (§1)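 For relative viability, nuclei counts in treated wells were divided by those in vehicle wells. Lung cancer cell lines had been pin-tool dosed in 1536-well plates the day after seeding and cultured for 5 days, then fixed and stained in one step (final 0.05% Triton X-100, 1% formaldehyde, 1 ug/ml Hoechst) and imaged at 4×. Doses were one drug alone or a fixed anchor-drug dose plus five library-drug doses (not always all listed) in √10 steps, and values are duplicate-plate medians.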

Dabrafenib + Vorinostat = compound: CC(C)(C)c1nc(-c2cccc(NS(=O)(=O)c3c(F)cccc3F)c2F)c(-c2ccnc(N)n2)s1 [Dabrafenib] + O=C(CCCCCCC(=O)Nc1ccccc1)NO [Vorinostat] (partner 1 µM)
Method in brief: as §1

Dabrafenib + Decitabine = compound: CC(C)(C)c1nc(-c2cccc(NS(=O)(=O)c3c(F)cccc3F)c2F)c(-c2ccnc(N)n2)s1 [Dabrafenib] + Nc1ncn([C@H]2C[C@H](O)[C@@H](CO)O2)c(=O)n1 [Decitabine] (partner 2 µM)
Method in brief: as §1

VX-702 + Alpelisib = compound: NC(=O)c1ccc(N(C(N)=O)c2c(F)cccc2F)nc1-c1ccc(F)cc1F [VX-702] + Cc1nc(NC(=O)N2CCC[C@H]2C(N)=O)sc1-c1ccnc(C(C)(C)C(F)(F)F)c1 [Alpelisib] (partner 2 µM)
Method in brief: as §1

Row | Cell Line | relative viability (VX-702 + Lapatinib; first compound 0.02 µM) | relative viability (VX-702 + Lapatinib; first compound 0.2 µM) | relative viability (VX-702 + Lapatinib; first compound 0.6325 µM) | relative viability (VX-702 + Lapatinib; first compound 2 µM) | relative viability (Dabrafenib + Vorinostat; first compound 0.009487 µM) | relative viability (Dabrafenib + Vorinostat; first compound 0.03 µM) | relative viability (Dabrafenib + Vorinostat; first compound 0.09487 µM) | relative viability (Dabrafenib + Vorinostat; first compound 0.3 µM) | relative viability (Dabrafenib + Decitabine; first compound 0.003 µM) | relative viability (Dabrafenib + Decitabine; first compound 0.009487 µM) | relative viability (Dabrafenib + Decitabine; first compound 0.03 µM) | relative viability (Dabrafenib + Decitabine; first compound 0.09487 µM) | relative viability (Dabrafenib + Decitabine; first compound 0.3 µM) | relative viability (VX-702 + Alpelisib; first compound 0.02 µM) | relative viability (VX-702 + Alpelisib; first compound 0.2 µM) | relative viability (VX-702 + Alpelisib; first compound 0.6325 µM) | relative viability (VX-702 + Alpelisib; first compound 2 µM) | relative viability (Dabrafenib + Vorinostat; first compound 0.003 µM)
1 | PC-14 | 0.363 | 0.245 | 0.311 | 0.29 | 0.829 | 0.737 | 0.757 | 0.73 | 0.172 | 0.276 | 0.24 | 0.219 | 0.147 | 1.05 | 0.912 | 0.927 | 1.01 | –
2 | RERF-LC-KJ | 0.891 | 0.801 | 0.888 | 0.933 | 0.779 | 0.706 | 0.618 | 0.789 | 0.792 | 0.724 | 0.655 | 0.731 | 0.705 | 0.969 | 0.69 | 0.8 | 0.794 | 0.745
3 | ChaGo-K-1 | – | – | – | – | 0.727 | 0.663 | 0.694 | 0.754 | 0.456 | 0.508 | 0.552 | 0.522 | 0.402 | – | – | – | – | 0.518
4 | H3255 | 0.24 | 0.254 | 0.26 | 0.241 | 0.765 | 0.755 | 0.913 | 0.78 | 0.539 | 0.704 | 0.585 | 0.625 | 0.649 | 0.727 | 0.78 | 0.723 | 0.907 | 0.762
5 | NCI-H1299 | 1.02 | 0.965 | 1.03 | 1.06 | – | – | – | – | – | – | – | – | – | 1.14 | 1.1 | 1.21 | 1.15 | –
6 | NCI-H1563 | 0.939 | 0.991 | 1.02 | 0.691 | – | – | – | – | – | – | – | – | – | 0.905 | 0.997 | 0.835 | 0.876 | –
7 | SK-MES-1 | 0.449 | 0.407 | 0.458 | 0.43 | 1.05 | 1.14 | 1.04 | 0.854 | 0.362 | 0.441 | 0.405 | 0.382 | 0.338 | 0.739 | 0.822 | 0.853 | 0.918 | –
8 | NCI-H1648 | – | – | – | – | 0.429 | – | 0.499 | 0.421 | 0.599 | 0.463 | – | 0.372 | 0.495 | – | – | – | – | 0.459
9 | NCI-H1755 | 1.08 | 1.02 | 1.09 | 1.09 | 0.726 | 0.558 | 0.771 | 0.728 | 0.654 | 0.706 | 0.667 | 0.722 | 0.583 | 0.907 | 0.891 | 0.925 | 1.01 | 0.849
10 | NCI-H1651 | 1.04 | 0.929 | 0.847 | 0.963 | 0.533 | 0.573 | 0.419 | 0.544 | 0.603 | 0.679 | 0.618 | 0.512 | 0.243 | 0.928 | 0.948 | 0.882 | 1.16 | 0.567
11 | NCI-H23 | 1.12 | 1.01 | 1.04 | 1.25 | 0.548 | 0.592 | 0.354 | 0.409 | – | 0.343 | 0.352 | 0.333 | 0.32 | 0.659 | 0.65 | 0.683 | 0.998 | –
12 | A549 | 1.05 | 0.922 | 0.943 | 1.03 | – | – | – | – | – | 0.277 | 0.201 | 0.212 | 0.0722 | 0.727 | 0.666 | 0.692 | 0.857 | –
13 | NCI-H661 | 0.498 | 0.445 | 0.505 | 0.624 | 0.778 | 0.804 | 0.767 | 0.842 | 0.656 | 0.57 | 0.575 | 0.573 | 0.514 | 0.536 | 0.364 | 0.338 | 0.997 | 0.889
14 | NCI-H650 | 0.876 | – | 0.43 | 1.16 | 0.346 | 0.408 | 0.241 | 0.218 | – | 0.324 | 0.33 | 0.303 | 0.251 | 1.11 | – | 1.15 | 1.34 | –
15 | NCI-H2009 | 1.14 | 0.931 | 1.01 | 1.08 | 0.64 | 0.673 | 0.414 | 0.574 | 0.359 | 0.38 | 0.397 | 0.339 | 0.358 | 1.21 | 1.22 | 1.24 | 1.35 | 0.651
16 | LC-2-ad | 0.892 | 0.972 | 1.01 | 1.03 | 0.736 | 0.73 | 0.613 | 0.686 | 0.749 | 0.753 | 0.776 | 0.771 | 0.689 | 0.943 | 0.885 | 0.868 | 1.02 | 0.74
17 | HCC-366 | 1.03 | 1.15 | 1.23 | 0.791 | 0.286 | 0.29 | 0.296 | 0.247 | 0.392 | 0.33 | 0.404 | 0.364 | 0.176 | 0.37 | 0.369 | 0.296 | 0.463 | 0.365
18 | UMC-11 | 0.866 | 0.908 | 0.769 | 1.04 | 0.362 | 0.409 | 0.473 | 0.454 | 0.707 | 0.603 | 0.558 | 0.383 | 0.434 | 0.954 | 0.973 | 0.955 | 1.29 | 0.379
19 | PC-3 [JPC-3] | 0.468 | 0.461 | 0.442 | 0.414 | 0.981 | 0.713 | 0.771 | 1.12 | – | 0.865 | 0.872 | 0.812 | 0.804 | 1.02 | 1.06 | 1.07 | 1.02 | –
20 | NCI-H596 | 1.09 | 1.01 | 1.13 | 1.1 | 0.723 | 0.416 | 0.725 | 0.515 | – | 1.1 | 0.821 | 1.02 | 0.88 | 0.437 | 0.436 | 0.509 | 0.426 | –
21 | NCI-H441 | – | – | – | – | 0.725 | 0.994 | 0.804 | 0.839 | – | 0.253 | 0.279 | 0.247 | 0.203 | 0.847 | 0.537 | 0.727 | 0.759 | –
